Experimental data from ChEMBL document CHEMBL4359841, “Late-Stage Functionalization of Platensimycin Leading to Multiple Analogues with Improved Antibacterial Activity in Vitro and in Vivo” (2019).
Values after ≈ are worked out from the molar mass of the structure shown. Active and inactive are the calls of the source. The calls are words filed in the database; no cut-off is given here.

What was measured:
[1] = system: Staphylococcus aureus; experiment: Inhibition of FabB/FabF in methicillin-resistant Staphylococcus aureus assessed as antibacterial activity at 2 ug/disk after 18 hrs by agar disk diffusion method
[2] = system: Staphylococcus aureus; experiment: Inhibition of FabB/FabF in methicillin-sensitive Staphylococcus aureus assessed as antibacterial activity after 16 hrs by agar dilution method
[3] = system: Staphylococcus aureus; experiment: Inhibition of FabB/FabF in methicillin-resistant Staphylococcus aureus 2978 clinical isolate assessed as antibacterial activity after 16 hrs by agar dilution method
[4] = system: Staphylococcus aureus; experiment: Inhibition of FabB/FabF in methicillin-resistant Staphylococcus aureus 2985 clinical isolate assessed as antibacterial activity after 16 hrs by agar dilution method
[5] = system: Staphylococcus aureus; experiment: Inhibition of FabB/FabF in methicillin-resistant Staphylococcus aureus 3056 clinical isolate assessed as antibacterial activity after 16 hrs by agar dilution method
[6] = system: Staphylococcus aureus; experiment: Inhibition of FabB/FabF in methicillin-resistant Staphylococcus aureus 3079 clinical isolate assessed as antibacterial activity after 16 hrs by agar dilution method
[7] = system: Staphylococcus aureus; experiment: Inhibition of FabB/FabF in methicillin-resistant Staphylococcus aureus 3094 clinical isolate assessed as antibacterial activity after 16 hrs by agar dilution method
[8] = system: Staphylococcus aureus; experiment: Inhibition of FabB/FabF in methicillin-resistant Staphylococcus aureus 3097 clinical isolate assessed as antibacterial activity after 16 hrs by agar dilution method
[9] = system: Staphylococcus aureus; experiment: Inhibition of FabB/FabF in methicillin-resistant Staphylococcus aureus 3103 clinical isolate assessed as antibacterial activity after 16 hrs by agar dilution method
[10] = system: Staphylococcus aureus; experiment: Inhibition of FabB/FabF in methicillin-resistant Staphylococcus aureus 3108 clinical isolate assessed as antibacterial activity after 16 hrs by agar dilution method
[11] = system: Staphylococcus aureus; experiment: Inhibition of FabB/FabF in methicillin-resistant Staphylococcus aureus 3150 clinical isolate assessed as antibacterial activity after 16 hrs by agar dilution method
[12] = system: Staphylococcus aureus; experiment: Inhibition of FabB/FabF in methicillin-resistant Staphylococcus aureus 3156 clinical isolate assessed as antibacterial activity after 16 hrs by agar dilution method
[13] = system: Staphylococcus aureus; experiment: Inhibition of FabB/FabF in methicillin-sensitive Staphylococcus aureus 2952 clinical isolate assessed as antibacterial activity after 16 hrs by agar dilution method
[14] = system: Staphylococcus aureus; experiment: Antibacterial activity against methicillin-resistant Staphylococcus aureus infected in C57BL/6J mouse model of peritonitis assessed as mouse survival at 10 mg/kg, ip dosed at 1 hr and 5 hrs post infection and measured for 7 days relative to control; format: functional
[15] = system: Staphylococcus aureus; experiment: Antibacterial activity against methicillin-resistant Staphylococcus aureus infected in C57BL/6J mouse model of peritonitis assessed as mouse survival at 20 mg/kg, ip dosed at 1 hr and 5 hrs post infection and measured for 7 days relative to control; format: functional
[16] = system: Staphylococcus aureus; experiment: Antibacterial activity against methicillin-resistant Staphylococcus aureus infected in C57BL/6J mouse model of peritonitis assessed as mouse survival at 30 mg/kg, ip dosed at 1 hr and 5 hrs post infection and measured for 7 days relative to control; format: functional
[17] = system: Staphylococcus aureus; experiment: Antibacterial activity against methicillin-resistant Staphylococcus aureus infected in C57BL/6J mouse model of peritonitis assessed as mouse survival at 30 to 50 mg/kg, po administered via gavage measured after 2 days; format: functional, organism-based
[18] = system: Staphylococcus aureus; experiment: Antibacterial activity against methicillin-resistant Staphylococcus aureus infected in BALB/c mouse model of skin infection assessed as bacterial load in skin lesions at 2 mg administered topically as ointment twice daily for 7 days and measured at 24 hrs post last dose (7.9 +/- 0.9 x 10^8 CFU/g); format: functional
[19] = system: Staphylococcus aureus; experiment: Antibacterial activity against methicillin-resistant Staphylococcus aureus infected in BALB/c mouse model of skin wound assessed as reduction in appearance of secondary scald at 2 mg administered topically as ointment twice daily for 7 days and measured after 24 hrs by visual inspection method; format: functional, organism-based
[20] = system: Staphylococcus aureus; experiment: Antibacterial activity against methicillin-resistant Staphylococcus aureus infected in BALB/c mouse model of skin wound assessed as reduction in detachment of epidermis from dermis at 2 mg administered topically as ointment twice daily for 7 days and measured after 24 hrs by visual inspection method; format: functional, organism-based
[21] = system: Staphylococcus aureus; experiment: Antibacterial activity against methicillin-resistant Staphylococcus aureus infected in BALB/c mouse model of skin wound assessed as retainment of dermis layers at 2 mg administered topically as ointment twice daily for 7 days and measured and after 24 hrs by HE staining analysis; format: functional, organism-based
[22] = system: Staphylococcus aureus; experiment: Antibacterial activity against methicillin-resistant Staphylococcus aureus infected in BALB/c mouse model of skin wound assessed as retainment of fat layers at 2 mg administered topically as ointment twice daily for 7 days and measured after 24 hrs by HE staining analysis; format: functional, organism-based

For `C[C@]12C[C@@]34C=C(SC5CCCCC5)C(=O)[C@@](C)(CCC(=O)Nc5c(O)ccc(C(=O)O)c5O)[C@@H]3[C@H](C[C@@H]1C4)O2`, the inhibition [1] was “Active”, the MIC [2] was 0.25 µg/mL (≈ 0.45 µM) and the inhibition [3] was “Active”. For the same compound, the inhibition [4] was “Active”, the inhibition [5] was “Active” and the inhibition [6] was “Active”. The inhibition [7] was “Active”, the inhibition [8] was “Active” and the inhibition [9] was “Active”. The inhibition [10] was “Active”, the inhibition [11] was “Active” and the inhibition [12] was “Active”. The inhibition [13] was “Active”, the survival at 10 mg/kg [14] was greater than 60% and the survival at 20 mg/kg [15] was 100%. The survival at 30 mg/kg [16] was 80%, the Survival [17] was “inactive” and the Activity [18] was 2.7 ×10⁶ CFU/g. The Activity [19] was “Active”, the Activity [20] was “Active” and the Activity [21] was “Active”. For the same compound, the Activity [22] was “Active”.
For `C[C@]12C[C@@]34C=CC(=O)[C@@](C)(CCC(=O)Nc5c(O)ccc(C(=O)O)c5O)[C@@H]3[C@H](C[C@@H]1C4)O2`, the MIC [2] was 0.5 µg/mL (≈ 1.13 µM), the MIC [3] was 1 µg/mL (≈ 2.27 µM) and the MIC [4] was 1 µg/mL (≈ 2.27 µM). For the same compound, the MIC [5] was 1 µg/mL (≈ 2.27 µM), the MIC [6] was 1 µg/mL (≈ 2.27 µM) and the MIC [7] was 1 µg/mL (≈ 2.27 µM). It also gave an MIC [8] of 1 µg/mL (≈ 2.27 µM), an MIC [9] of 1 µg/mL (≈ 2.27 µM) and an MIC [10] of 1 µg/mL (≈ 2.27 µM). The MIC [11] was 1 µg/mL (≈ 2.27 µM), the MIC [12] was 1 µg/mL (≈ 2.27 µM) and the MIC [13] was 1 µg/mL (≈ 2.27 µM). The Survival [14] was “inactive”.
